In general, Ki refers to the dissociation constant of the complex between target and ligand, obtained from inhibition or displacement. Lower therefore signals a stronger hold on the target.

The conditions of data set [1]: from C=CCCC(=O)Nc1cc(NC(=O)OC)ccc1-c1nnc(Cl)cc1C(CC=C)NC(=O)OC(C)(C)C; rcm bond; 12-membered ring; Grubbs II (0.3 eq); DCM; 6.6 mM.
For data set [2], the target named is purified human Factor XIa (Homo sapiens (Human), UniProt P03951). Briefly: Factor XIa enzyme inhibition assay (chromogenic substrate S-2366). Conditions: substrate S-2366, pH 7.4. The format is biochemical. How it is done:
The effectiveness of compounds of the present invention as inhibitors of the coagulation Factors XIa, VIIa, IXa, Xa, XIIa, plasma kallikrein or thrombin, can be determined using a relevant purified serine protease, respectively, and an appropriate synthetic substrate. The rate of hydrolysis of the chromogenic or fluorogenic substrate by the relevant serine protease was measured both in the absence and presence of compounds of the present invention. […] A decrease in the rate of absorbance or fluorescence change in the presence of inhibitor is indicative of enzyme inhibition. Such methods are known to one skilled in the art. The results of this assay are expressed as the inhibitory constant, Ki.
Values of Ki were determined by allowing the protease to react with the substrate in the presence of the inhibitor. Reactions were allowed to go for periods of 20-180 minutes (depending on the protease) and the velocities (rate of absorbance or fluorescence change versus time) were measured. The following relationships were used to calculate Ki values: (vo−vs)/vs=I/(Ki(1+S/Km)) for a competitive inhibitor with one binding site; or vs/vo=A+((B−A)/1+((IC50/(I)n))); and Ki=IC50/(1+S/Km) for a competitive inhibitor where: […]

SMILES strings stand for the structures. Where a name gives a salt, the structure may show the parent alone. Read-outs that look alike come from different tables or passages of the source.

purified human Factor XIa, sequence (P03951 388-625): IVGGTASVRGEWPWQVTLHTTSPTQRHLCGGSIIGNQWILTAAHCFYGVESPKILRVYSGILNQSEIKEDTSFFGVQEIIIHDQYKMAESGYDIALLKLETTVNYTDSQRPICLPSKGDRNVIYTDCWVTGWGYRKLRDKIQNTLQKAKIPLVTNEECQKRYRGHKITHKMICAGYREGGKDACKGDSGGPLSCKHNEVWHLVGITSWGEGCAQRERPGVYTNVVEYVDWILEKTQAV
purified human Factor XIa, sequence (P03951 19-387 partner): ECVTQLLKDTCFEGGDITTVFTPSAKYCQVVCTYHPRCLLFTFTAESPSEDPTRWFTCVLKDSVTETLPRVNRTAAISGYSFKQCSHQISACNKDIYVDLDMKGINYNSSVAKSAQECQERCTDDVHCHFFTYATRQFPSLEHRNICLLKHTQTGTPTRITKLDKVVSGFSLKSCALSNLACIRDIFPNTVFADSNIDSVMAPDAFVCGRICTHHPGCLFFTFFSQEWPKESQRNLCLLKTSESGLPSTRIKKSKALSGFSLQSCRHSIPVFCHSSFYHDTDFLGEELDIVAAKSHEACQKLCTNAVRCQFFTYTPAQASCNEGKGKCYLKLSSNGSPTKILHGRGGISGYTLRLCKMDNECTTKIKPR

Regarding `COC(=O)Nc1ccc2c(c1)N[C@@H](C(=O)OC)CC=CC[C@H](NC(=O)OC(C)(C)C)c1nc-2cn1COCC[Si](C)(C)C`, for the setting “from C=CC[C@H](NC(=O)OC(C)(C)C)c1nc(-c2ccc(NC(=O)OC)cc2N[C@H](CC=C)C(=O)OC)cn1COCC[Si](C)(C)C, rcm bond, Grubbs II, DCE, 40.0 mM, 120.0 °C, 0.33 h”, the ring closure, yield of all isomers is 30%.

In the case of `COC(=O)Nc1ccc2c(c1)CCCN(C)C(=O)C[C@H](NC(=O)OC(C)(C)C)c1nc-2cn1COCC[Si](C)(C)C`, the ring closure, yield of all isomers (from CNCCCc1cc(NC(=O)OC)ccc1-c1cn(COCC[Si](C)(C)C)c([C@H](CC(=O)O)NC(=O)OC(C)(C)C)n1, amide bond, BOP, DCM, 8.64 mM, 25.0 °C, 2.0 h) worked out at 39.4%.

For the setting “from C=CCCC(=O)Nc1ccccc1-c1nnc([C@H](CC=C)NC(=O)OC(C)(C)C)o1, rcm bond, Grubbs II, DCM, 4.8 mM, 75.0 °C, 1.5 h”, `CC(C)(C)OC(=O)N[C@H]1CC=CCCC(=O)Nc2ccccc2C2=NN=C1O2` (mixture of isomers) registered a ring closure, yield of all isomers of 27%.

The molecule `COC(=O)Nc1ccc2c(c1)NC(=O)CC/C=C/CC(NC(=O)OC(C)(C)C)c1cc(Cl)nnc1-2` (stereo not drawn) came in with a ring closure, isolated yield in data set [1] of 56%. The same molecule displayed a ring closure, yield of all isomers (from C=CCCC(=O)Nc1cc(NC(=O)OC)ccc1-c1nnc(Cl)cc1C(CC=C)NC(=O)OC(C)(C)C, rcm bond, Grubbs II, DCM, 6.6 mM, 40.0 °C, 1.0 h) of 56%.

Take `COC(=O)Nc1ccc2c(c1)NC(=O)CCN(C(=O)OC(C)(C)C)C[C@H](NC(=O)OCc1ccccc1)c1nc-2cn1COCC[Si](C)(C)C`: the ring closure, yield of all isomers (from COC(=O)Nc1ccc(-c2cn(COCC[Si](C)(C)C)c([C@H](CN(CCC(=O)O)C(=O)OC(C)(C)C)NC(=O)OCc3ccccc3)n2)c(N)c1, amide bond, BOP, DCM, 0.93 mM, 25.0 °C, 5.0 h) came to 87%.

In the case of `COC(=O)c1ccc2c(c1)OCCNC(=O)CC(NC(=O)OC(C)(C)C)c1cc-2nnc1Cl` (stereo not drawn), the ring closure, yield of all isomers (from COC(=O)c1ccc(-c2cc(C(CC(=O)O)NC(=O)OC(C)(C)C)c(Cl)nn2)c(OCCN)c1, amide bond, BOP, DCM, 1.28 mM, 25.0 °C, 2.5 h) came to 15.3%.

For `CC(C)(C)OC(=O)N[C@H]1CC=CCCOc2ccccc2-c2cn(COCC[Si](C)(C)C)c1n2`, under “from C=CCCOc1ccccc1-c1cn(COCC[Si](C)(C)C)c([C@H](CC=C)NC(=O)OC(C)(C)C)n1, rcm bond, Grubbs II, DCM, 1.02 mM, 40.0 °C, 1.0 h”, the ring closure, yield of all isomers turned out to be 29%.

With `COC(=O)Nc1ccc2c(c1)NC(=O)CCC(C)=CC[C@H](NC(=O)OC(C)(C)C)c1nc-2cn1COCC[Si](C)(C)C`, the ring closure, yield of all isomers (from C=CC[C@H](NC(=O)OC(C)(C)C)c1nc(-c2ccc(NC(=O)OC)cc2NC(=O)CCC(=C)C)cn1COCC[Si](C)(C)C, rcm bond, Grubbs II, DCE, 105.0 mM, 120.0 °C, 0.33 h) was found to be 34.6%.

Take `COC(=O)Nc1ccc2c(c1)NC(=O)CCC=CC[C@H](NC(=O)OC(C)(C)C)c1cc-2ccn1`: the ring closure, yield of all isomers (from C=CCCC(=O)Nc1cc(NC(=O)OC)ccc1-c1ccnc([C@H](CC=C)NC(=O)OC(C)(C)C)c1, rcm bond, Grubbs II, DCM, 0.99 mM, 40.0 °C, 1.5 h) was determined as 75%.

`COC(=O)Nc1ccc2c(c1)NC(=O)C/C=C/CC(NC(=O)OC(C)(C)C)c1cc-2nc(C)n1` (stereo not drawn): the ring closure, yield of all isomers (from C=CCC(=O)Nc1cc(NC(=O)OC)ccc1-c1cc(C(CC=C)NC(=O)OC(C)(C)C)nc(C)n1, rcm bond, Grubbs II, DCM, 0.5 mM, 40.0 °C, 4.0 h) amounted to 22%.

`COC(=O)Nc1ccc2c(c1)NC(=O)C/C=C/CC(NC(=O)/C=C/c1cc(Cl)ccc1-n1cnnn1)c1cc-2nc(C)n1` (stereo not drawn) [Example 167, {(E)-14-[(E)-3-(5-Chloro-2-tetrazol-1-yl-phenyl)-acryloylamino]-17-methyl-9-oxo-8,16,18-triaza-tricyclo[13.3.1.0^2,7]nonadeca-1(19),2,4,6,11,15,17-heptaen-5-yl}-carbamic acid methyl ester]: in data set [2], affinity was put at a Ki of 157 nM.

In the case of `COC(=O)Nc1ccc2c(c1)NC(=O)CC/C=C/CC(NC(=O)/C=C/c1cc(Cl)ccc1-n1cnnn1)c1cc(Cl)nnc1-2` (stereo not drawn) [Example 89, Methyl((E)-3-chloro-5-((E)-3-(5-chloro-2-(1H-tetrazol-1-yl)phenyl)acrylamido)-11-oxo-5,6,9,10,11,12-hexahydrobenzo[b]pyridazino[3,4-d][1]azacyclododecin-14-yl)carbamate], in data set [2], the Ki was determined as 1060 nM.

In the case of `COC(=O)Nc1ccc2c(c1)NC(=O)CC(O)C(O)C[C@H](NC(=O)/C=C/c1cc(Cl)ccc1-n1cnnn1)c1nc-2c[nH]1` (single isomer, unassigned) [Example 137], in data set [2], the Ki amounted to 192 nM.

For the molecule `COC(=O)Nc1ccc2c(c1)NCCCCC[C@H](NC(=O)/C=C/c1cc(Cl)ccc1-n1cnnn1)c1nc-2c(C#N)[nH]1` [Example I-115, {(S)-14-[(E)-3-(5-Chloro-2-tetrazol-1-yl-phenyl)-acryloylamino]-17-cyano-8,16,18-triaza-tricyclo[13.2.1.0^2,7]octadeca-1(17),2,4,6,15(18)-pentaen-5-yl}-carbamic acid methyl ester, 2 TFA salt], in data set [2], the Ki is below 5 nM.

With `COC(=O)Nc1ccc2c(c1)NC(=O)CCCC[C@H](NC(=O)c1cccc3ccccc13)c1nc-2c[nH]1` [Example I-17], in data set [2], the affinity corresponds to a Ki of 351 nM.

In turn, `COC(=O)Nc1ccc2c(c1)NC(=O)CCCC[C@H](NC(=O)c1cn(-c3cccc(Cl)c3)nn1)c1nc-2c[nH]1` [Example I-10] came in with a Ki in data set [2] of 217 nM. This Ki is about 1.6-fold lower than that of the molecule before.

In turn, `CC(C)(C)OC(=O)N[C@H]1CC=CCCCc2ccccc2-c2cn(COCC[Si](C)(C)C)c1n2` came in with a ring closure, yield of all isomers (from C=CCCCc1ccccc1-c1cn(COCC[Si](C)(C)C)c([C@H](CC=C)NC(=O)OC(C)(C)C)n1, rcm bond, Grubbs II, DCM, 0.97 mM, 40.0 °C, 1.0 h) of 62.9%.

In data set [2], `COC(=O)Nc1ccc2c(c1)NC(=O)C(C)CCC[C@H](NC(=O)c1c(F)cc3c(ccn3C)c1F)c1nc-2c(Cl)[nH]1` (stereo partly drawn) [Example I-59] gave a Ki below 5 nM.

In turn, `O=C(/C=C/c1cc(Cl)ccc1-n1cnnn1)N[C@H]1CCCCC(=O)Nc2cnccc2-c2ccnc1c2` [Example 138, (E)-3-(5-Chloro-2-tetrazol-1-yl-phenyl)-N-((S)-9-oxo-5,8,16-triaza-tricyclo[13.3.1.0^2,7]nonadeca-1(19),2,4,6,15,17-hexaen-14-yl)-acrylamide, 2 TFA salt] came in with a Ki in data set [2] of 20 nM. This lies in the double-digit nanomolar range.

Consider `COCCOC(=O)Nc1ccc2c(c1)N[C@@H](C(=O)OC)CCCC[C@H](NC(=O)/C=C/c1cc(Cl)ccc1-n1cnnn1)c1nc-2c(C#N)[nH]1` [Example I-278], for which the Ki in data set [2] was below 5 nM.

Values taken from patent publication US8940720B2, “Macrocycles as factor XIa inhibitors” (Bristol-Myers Squibb Company, priority 2010, dated 2015).
